Measured values taken from US11370774B2, “Substituted benzofuran, benzopyrrole, benzothiophene, and structurally related complement inhibitors” (BioCryst Pharmaceuticals, Inc., priority 2018, dated 2022).

Target: Factor D (Homo sapiens (Human), UniProt P00746)
Assay: Factor D esterolytic assay (Z-Lys-SBzl substrate, DTNB, 405 nm)
Assay type: biochemical
Settings: Z-Lys-SBzl 1.29 mM, pH 7.5, 10% DMSO, tested a minimum of three times, read-out: Measured Ki (IC50) Value for Compounds: IC50
Method in brief: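 Thioester hydrolysis (Z-Lys-SBzl, 1.29 mM) by human Factor D ([…]) detected through DTNB color at 405 nm over 600 sec, minus 690 nm background. Buffer: 100 mM HEPES pH 7.5, 500 mM NaCl, 10% DMSO; optional room-temperature preincubation before substrate. IC50 derived from percent rate inhibition; at least three runs.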

Chain of Factor D (P00746 26-253): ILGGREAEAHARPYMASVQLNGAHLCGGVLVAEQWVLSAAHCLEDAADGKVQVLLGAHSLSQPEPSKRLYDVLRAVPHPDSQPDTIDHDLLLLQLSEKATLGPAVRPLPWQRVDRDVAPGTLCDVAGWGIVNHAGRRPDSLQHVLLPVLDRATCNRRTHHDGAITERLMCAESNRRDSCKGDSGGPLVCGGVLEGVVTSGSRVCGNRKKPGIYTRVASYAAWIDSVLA

| Compound | IC50 |
| --- | --- |
| NCc1cccc(-c2cc(COc3ccc(O)cc3CC(=O)O)cc3ccoc23)c1 [Compound 249f, 2-(2-((7-(3-(aminomethyl)phenyl)benzofuran-5-yl)methoxy)-5-hydroxyphenyl)acetic acid] | < 1000 nM |
| COCc1cc2cc(COc3cc(C#N)ccc3CC(=O)O)cc(-c3cccc(CN)c3)c2o1 [Compound 458b, 2-(2-((7-(3-(aminomethyl)phenyl)-2-(methoxymethyl)benzofuran-5-yl)methoxy)-4-cyanophenyl)acetic acid] | < 1000 nM |
| NCc1ccc(F)c(-c2nc(C(=O)Nc3ccccc3CC(=O)O)c3cccn3n2)c1 [Compound 47f, 2-(2-(2-(5-(aminomethyl)-2-fluorophenyl)pyrrolo[2,1-f][1,2,4]triazine-4-carboxamido)phenyl)acetic acid] | 1000 to 10000 nM |
| Cc1ccc(CC(=O)O)c(OCc2cc(-c3ccnc(CN)c3F)c3ccn(C)c3c2)c1 [Compound 366d, 2-(2-((4-(2-(aminomethyl)-3-fluoropyridin-4-yl)-1-methyl-1H-indol-6-yl)methoxy)-4-methylphenyl)acetic acid] | < 1000 nM |
| COC(=O)Cc1ccccc1NC(=O)c1nc(-c2cccc(CN)c2)nc2c1CCC2 [Compound 2e, methyl 2-(2-(2-(3-(aminomethyl)phenyl)-6,7-dihydro-5H-cyclopenta[d]pyrimidine-4-carboxamido)phenyl)acetate] | > 10000 nM |
| NCc1cccc(-c2cc(COc3c(CC(=O)O)cccc3-c3ccoc3)cc3ccoc23)c1 [Compound 468h, 2-(2-((7-(3-(aminomethyl)phenyl)benzofuran-5-yl)methoxy)-3-(furan-3-yl)phenyl)acetic acid] | < 1000 nM |
| COCc1cc2cc(COc3ccccc3CC(=O)O)cc(-c3ccnc(CN)c3F)c2o1 [Compound 120c, 2-(2-((7-(2-(aminomethyl)-3-fluoropyridin-4-yl)-2-(methoxymethyl)benzofuran-5-yl)methoxy)phenyl)acetic acid] | < 1000 nM |
| NCc1cccc(-c2cc(COc3ccccc3CC(=O)O)cc3c2OCC3)c1 [Compound 43d, 2-(2-((7-(3-(aminomethyl)phenyl)-2,3-dihydrobenzofuran-5-yl)methoxy)phenyl)acetic acid] | < 1000 nM |
| NCc1cccc(-c2nc(C(=O)Nc3ccoc3CC(=O)O)c3cccn3n2)c1F [Compound 143g, 2-(3-(2-(3-(aminomethyl)-2-fluorophenyl)pyrrolo[2,1-f][1,2,4]triazine-4-carboxamido)furan-2-yl)acetic acid] | > 10000 nM |
| NCc1cccc(-c2cc(COc3cc(F)ccc3CC(=O)O)cc3c(C(F)(F)F)coc23)c1 [Compound 486c, 2-(2-((7-(3-(aminomethyl)phenyl)-3-(trifluoromethyl)benzofuran-5-yl)methoxy)-4-fluorophenyl)acetic acid] | < 1000 nM |
| NCc1cccc(-c2nc(C(=O)Nc3cscc3CC(=O)O)cc3ccoc23)c1 [Compound 145c, 2-(4-(7-(3-(aminomethyl)phenyl)furo[2,3-c]pyridine-5-carboxamido)thiophen-3-yl)acetic acid] | < 1000 nM |
| Cc1ccc(CC(=O)O)c(OCc2cc(-c3cccc(CN)c3)c3ccn(C(C)C)c3c2)c1 [Compound 352c, 2-(2-((4-(3-(aminomethyl)phenyl)-1-isopropyl-1H-indol-6-yl)methoxy)-4-methylphenyl)acetic acid] | < 1000 nM |
| NCc1cccc(-c2cc(CNc3ccccc3CC(=O)O)cc3ccoc23)c1 [Compound 153b, lithium 2-(2-(((7-(3-(aminomethyl)phenyl)benzofuran-5-yl)methyl)amino)phenyl)acetate] | < 1000 nM |
| Cc1ccc(CC(=O)O)c(OCc2cc(-c3ccnc(CN)c3)c3oc(F)cc3c2)c1 [Compound 526b, 2-(2-((7-(2-(aminomethyl)pyridin-4-yl)-2-fluorobenzofuran-5-yl)methoxy)-4-methylphenyl)acetic acid] | < 1000 nM |
| Cc1ccc(CC(=O)O)c(OCc2cc(-c3ccnc(CN)c3)c3ccn(C(C)C)c3c2)c1 [Compound 354c, 2-(2-((4-(2-(aminomethyl)pyridin-4-yl)-1-isopropyl-1H-indol-6-yl)methoxy)-4-methylphenyl)acetic acid] | < 1000 nM |
| COc1ccc(CC(=O)O)c(OCc2cc(-c3cccc(CN)c3F)c3oc(F)cc3c2)c1 [Compound 481b, 2-(2-((7-(3-(aminomethyl)-2-fluorophenyl)-2-fluorobenzofuran-5-yl)methoxy)-4-methoxyphenyl)acetic acid] | < 1000 nM |
| CC(N)c1cccc(-c2cc(COc3ccccc3CC(=O)O)cc3ccoc23)n1 (stereo not drawn) [Compound 100c, 2-(2-((7-(6-(1-aminoethyl)pyridin-2-yl)benzofuran-5-yl)methoxy)phenyl)acetic acid] | 1000 to 10000 nM |
| CC(=O)c1ccc(CC(=O)O)c(OCc2cc(-c3cccc(CN)c3)c3occ(C(F)(F)F)c3c2)c1 [Compound 506e, 2-(4-acetyl-2-((7-(3-(aminomethyl)phenyl)-3-(trifluoromethyl)benzofuran-5-yl)methoxy)phenyl)acetic acid] | < 1000 nM |

| Compound | IC50 |
| --- | --- |
| CC(C)Cc1cc2cc(COc3ccccc3CC(=O)O)cc(-c3cccc(CN)c3F)c2o1 [Compound 200e, 2-(2-((7-(3-(aminomethyl)-2-fluorophenyl)-2-isobutylbenzofuran-5-yl)methoxy)phenyl)acetic acid] | < 1000 nM |
| NCc1cccc(-c2cc(C(=O)Nc3ccccc3CC(=O)O)cc3c2ccn3CC2CC2)c1 [Compound 44c, 2-(2-(4-(3-(aminomethyl)phenyl)-1-(cyclopropylmethyl)-1H-indole-6-carboxamido)phenyl)acetic acid] | < 1000 nM |
| CC(=O)Nc1ccc(OCc2cc(-c3cccc(CN)c3)c3occc3c2)c(CC(=O)O)c1 [Compound 360c, 2-(5-acetamido-2-((7-(3-(aminomethyl)phenyl)benzofuran-5-yl)methoxy)phenyl)acetic acid] | < 1000 nM |
| NCc1cccc(-c2cc(COc3ccccc3CC(=O)O)cc3c(N)noc23)c1F [Compound 245g, 2-(2-((3-amino-7-(3-(aminomethyl)-2-fluorophenyl)benzo[d]isoxazol-5-yl)methoxy)phenyl)acetic acid] | < 1000 nM |
| NCc1cc(-c2cc(COc3ccccc3CC(=O)O)cc3ccoc23)ccc1F [Compound 60c, 2-(2-((7-(3-(aminomethyl)-4-fluorophenyl)benzofuran-5-yl)methoxy)phenyl)acetic acid] | < 1000 nM |
| C[C@@H](N)c1cccc(-c2cc(COc3ccccc3CC(=O)O)cc3ccoc23)c1F [Compound 65c, (R)-2-(2-((7-(3-(1-aminoethyl)-2-fluorophenyl)benzofuran-5-yl)methoxy)phenyl)acetic acid] | < 1000 nM |
| NCc1cccc(-c2cc(COc3ccccc3C(NC(=O)CCc3ccccc3)C(=O)O)cc3ccoc23)c1 (stereo not drawn) [Compound 253f, 2-(2-((7-(3-(aminomethyl)phenyl)benzofuran-5-yl)methoxy)phenyl)-2-(3-phenylpropanamido)acetic acid] | < 1000 nM |
| NCc1cc(-c2cc(COc3ccccc3CC(=O)O)cc3[nH]ccc23)ccn1 [Compound 211e, 2-(2-((4-(2-(aminomethyl)pyridin-4-yl)-1H-indol-6-yl)methoxy)phenyl)acetic acid] | < 1000 nM |
| NCc1cccc(-c2cc(COc3ccccc3CC(=O)O)cc3ccoc23)c1 [Compound 23e, 2-(2-((7-(3-(aminomethyl)phenyl)benzofuran-5-yl)methoxy)phenyl)acetic acid] | < 1000 nM |
| NCc1cccc(-c2cc(COc3ccccc3CC(=O)O)cc3oc(Cl)cc23)c1 [Compound 225h, 2-(2-((4-(3-(aminomethyl)phenyl)-2-chlorobenzofuran-6-yl)methoxy)phenyl)acetic acid] | < 1000 nM |
| NCc1cc(-c2cc(COc3ccccc3CC(=O)O)cc3cc(C(F)(F)F)oc23)ccn1 [Compound 226c, 2-(2-((7-(2-(aminomethyl)pyridin-4-yl)-2-(trifluoromethyl)benzofuran-5-yl)methoxy)phenyl)acetic acid] | < 1000 nM |
| COc1ccc(CC(=O)O)c(OCc2cc(-c3ccnc(CN)c3F)c3occc3c2)c1 [Compound 464d, 2-(2-((7-(2-(aminomethyl)-3-fluoropyridin-4-yl)benzofuran-5-yl)methoxy)-4-methoxyphenyl)acetic acid] | < 1000 nM |
| N#Cc1ccc(CC(=O)O)c(OCc2cc(-c3cccc(C(N)CF)c3)c3occc3c2)c1 (single isomer, unassigned; (+)) [Compound 412b, (+)-2-(2-((7-(3-(1-amino-2-fluoroethyl)phenyl)benzofuran-5-yl)methoxy)-4-cyanophenyl)acetic acid] | < 1000 nM |
| N#Cc1cccc(C(=O)NCc2cc3cc(COc4ccccc4CC(=O)O)cc(-c4cccc(CN)c4)c3o2)c1 [Compound 295c, 2-(2-((7-(3-(aminomethyl)phenyl)-2-((3-cyanobenzamido)methyl)benzofuran-5-yl)methoxy)phenyl)acetic acid] | < 1000 nM |
| NCc1c(F)ccc(-c2cc(COc3ccccc3CC(=O)O)cc3ccoc23)c1F [Compound 75c, 2-(2-((7-(3-(aminomethyl)-2,4-difluorophenyl)benzofuran-5-yl)methoxy)phenyl)acetic acid] | < 1000 nM |
| NCc1ccccc1-c1cc(COc2ccccc2CC(=O)O)cc2ccoc12 [Compound 243d, 2-(2-((7-(2-(aminomethyl)phenyl)benzofuran-5-yl)methoxy)phenyl)acetic acid] | > 10000 nM |
| Cc1ccc(CC(=O)O)c(OCc2cc(-c3cccc(CN)c3)c3occc3c2F)c1 [Compound 347b, 2-(2-((7-(3-(aminomethyl)phenyl)-4-fluorobenzofuran-5-yl)methoxy)-4-methylphenyl)acetic acid] | < 1000 nM |
| CCOC(=O)Cc1ccccc1NC(=O)c1cc(-c2cccc(CN)c2)c2occc2c1 [Compound 15c, ethyl 2-(2-(7-(3-(aminomethyl)phenyl)benzofuran-5-carboxamido)phenyl)acetate] | > 10000 nM |
